Assays:
[1] = system: carrageenan-induced paw edema; test: Carrageenan-induced paw edema test in rats; format: in vivo; conditions: oral administration, foot swelling 3 hours after carrageenan injection vs control
Description: 2. Carrageenan-induced Paw Edema Test in Rats
The day before the test date, rats were selected in each group so that the average body weight was as close as possible, and the rats were fasted by feed withdrawal prior to the test. At the test date, the rats were orally administered with the test compounds and a control material. After 1 hour, the volume (V0h) of a predetermined portion of the left hind foot of the rats was measured with a plethysmometer. 100 μl of 1% carrageenan solution was subcutaneously injected to the left hind foot of the rats using a syringe with 1 ml capacity. Three hours after the injection of the carrageenan, the volume (V3h) of the predetermined portion of the foot was again measured. The foot swelling variation […] in a group of test compound-treated rats was compared with that of a group of control material-treated rats. With the supposition of 0% inhibition by the control (control material-treated rats), the inhibition percentage of edema of each test compound was determined.

COX-1 = target: T1, COX-1 (Homo sapiens, UniProt P23219); test: Assay for the COX-1 inhibitory activity using U-937 (PGE2 inhibition); format: cell-based; conditions: for inhibition at 1 µM: 1 μM test compound, U-937 human lymphoma cells, PGE2 inhibition vs DMSO, read-out: Cyclooxygenase (COX) Inhibition (%) COX-1 (1 μM); for COX-1 inhibitory activity in comparison with the reference (Valdecoxib): 1 μM, U-937, comparison in words
T1 construct: host or cells: U-937 human lymphoma cells
T1 sequence (P23219 24-599): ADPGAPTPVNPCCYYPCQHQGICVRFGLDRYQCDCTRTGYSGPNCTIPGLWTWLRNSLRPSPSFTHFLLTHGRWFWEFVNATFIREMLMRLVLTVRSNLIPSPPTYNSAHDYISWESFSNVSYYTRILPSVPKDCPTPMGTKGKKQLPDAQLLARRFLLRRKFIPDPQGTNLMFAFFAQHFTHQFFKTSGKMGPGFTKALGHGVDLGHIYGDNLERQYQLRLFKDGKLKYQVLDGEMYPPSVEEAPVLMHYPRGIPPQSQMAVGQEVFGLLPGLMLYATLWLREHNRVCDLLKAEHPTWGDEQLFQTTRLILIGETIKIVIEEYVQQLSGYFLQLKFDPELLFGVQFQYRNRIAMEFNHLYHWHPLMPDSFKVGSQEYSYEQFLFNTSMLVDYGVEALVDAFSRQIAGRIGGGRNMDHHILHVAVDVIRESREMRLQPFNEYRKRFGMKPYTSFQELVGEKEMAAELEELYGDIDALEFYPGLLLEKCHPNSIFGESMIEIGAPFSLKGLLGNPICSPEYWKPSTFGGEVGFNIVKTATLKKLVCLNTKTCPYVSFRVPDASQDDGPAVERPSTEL
Description: The collected cells were diluted with HBSS (×1, Hank's balanced salt solution) to a concentration of 1×10^6 cells/ml. 1 ml of the dilute cell solution was placed into each well of 12-well plates. 5 μl of 1 μM solution of a test compound in DMSO and 5 μl of DMSO as a control were added to the wells. The wells were incubated in CO2 incubator at 37° C. for 15 minutes. Separately, 10 mM stock solution of arachidonic acid in ethanol was diluted ten times in ethanol to prepare 1 mM solution of arachidonic acid. Arachidonic acid acts as a substrate. 10 μl of the 1 mM solution of arachidonic acid was added to each well and incubated at CO2 incubator at 37° C. for 30 minutes. The cell solution of each well was placed in a centrifuge test tube and centrifuged at 10,000 rpm at 4° C. for 5 minutes. The concentration of PGE2 in the collected cells and the supernatant was quantified by means of a monoclonal kit (Cayman Chemicals). The percentages of PGE2 inhibition in a group of the test compound-treated cells in relation to a group of the DMSO-treated cells were calculated. Based on the calculated values, the COX-1 inhibitory activities were evaluated.
(§1) The percentages of the COX inhibition were calculated according to the following equation: % Inhibition=(concentration of PGE2 in test compound-untreated sample−concentration of PGE2 in test compound-treated sample)/(concentration of PGE2 in test compound-untreated sample)×100

COX-2 = target: T2, COX-2 (Mus musculus, UniProt Q05769); test: Assay for the COX-2 inhibitory activity using RAW 264.7 cell line (PGE2, interferon γ/LPS induced); format: cell-based; conditions: for inhibition at 0.01 µM: RAW264.7, 10 nM test compound, RAW 264.7 cells, interferon γ + LPS, 18 hours, PGE2, read-out: Cyclooxygenase (COX) Inhibition (%) COX-2 (10 nM); for COX-2 inhibitory activity in comparison with the reference (Valdecoxib): 10 nM, RAW 264.7, comparison in words; for selectivity (COX-2 over COX-1): judged from Table 1, in words
T2 construct: host or cells: RAW 264.7 cells, aspirin-pretreated, then induced with interferon gamma and LPS
T2 sequence (Q05769 18-604): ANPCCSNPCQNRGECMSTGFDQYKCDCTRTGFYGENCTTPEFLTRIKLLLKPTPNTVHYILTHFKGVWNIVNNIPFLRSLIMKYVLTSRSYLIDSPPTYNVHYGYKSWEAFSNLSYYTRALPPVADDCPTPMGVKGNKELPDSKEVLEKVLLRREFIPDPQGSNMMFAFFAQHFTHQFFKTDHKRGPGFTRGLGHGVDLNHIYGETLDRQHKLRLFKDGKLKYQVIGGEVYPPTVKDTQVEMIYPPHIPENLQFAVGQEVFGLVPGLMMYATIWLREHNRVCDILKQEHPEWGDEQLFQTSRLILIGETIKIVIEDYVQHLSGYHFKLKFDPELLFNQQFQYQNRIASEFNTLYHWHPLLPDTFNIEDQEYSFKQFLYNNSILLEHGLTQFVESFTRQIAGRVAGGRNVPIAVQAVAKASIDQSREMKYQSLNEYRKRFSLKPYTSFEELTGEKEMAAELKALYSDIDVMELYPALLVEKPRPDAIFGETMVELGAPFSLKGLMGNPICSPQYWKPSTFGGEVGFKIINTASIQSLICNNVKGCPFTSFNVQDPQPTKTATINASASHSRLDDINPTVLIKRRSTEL
Description: Each well was treated with 250 μM of aspirin and incubated at 37° C. for 2 hours. […] Then, each well was treated with interferon γ (100 units/ml) and Iipopolysaccharide (LPS, 100 ng/ml) and incubated for 18 hours. The culture media were transferred to another test tubes. The concentration of PGE2 was quantified by means of the EIA kit (Cayman Chemicals).
as §1

Compound	Inhibitory effect (% inhibition) [1] [% inhibition]	inhibition at 1 µM (COX-1) [%]	inhibition at 0.01 µM (COX-2) [%]	COX-1 inhibitory activity in comparison with the reference (Valdecoxib) (COX-1)	COX-2 inhibitory activity in comparison with the reference (Valdecoxib) (COX-2)	selectivity (COX-2 over COX-1) (COX-2)
Cc1ccc(-c2cc(C(F)(F)F)nn2-c2ccc(S(N)(=O)=O)cc2)cc1 [Celecoxib, reference compound]	23.9					
CS(=O)(=O)c1ccc(-n2nc(C(F)(F)F)nc2-c2ccccc2)cc1 [Example 25, 1-(4-methanesulfonylphenyl)-5-phenyl-3-trifluoromethyl-1H-[1,2,4]triazole]		29.2	7.62			
CS(=O)(=O)c1ccc(-n2nc(C(F)(F)F)nc2-c2ccc(Cl)cc2)cc1 [Example 26, 5-(4-chlorophenyl)-1-(4-methanesulfonylphenyl)-3-trifluoromethyl-1H-[1,2,4]triazole]		38.8	10.5			
CS(=O)(=O)c1ccc(-n2nc(C(F)(F)F)nc2-c2ccc(Br)cc2)cc1 [Example 27, 5-(4-bromophenyl)-1-(4-methanesulfonylphenyl)-3-trifluoromethyl-1H-[1,2,4]triazole]	21.7	13.8	16			
COc1ccc(-c2nc(C(F)(F)F)nn2-c2ccc(S(C)(=O)=O)cc2)cc1 [Example 28, 1-(4-methanesulfonylphenyl)-5-(4-methoxyphenyl)-3-trifluoromethyl-1H-[1,2,4]triazole]	23.3	10.1	28.6	the same as or lower	remarkably enhanced	excellent selectivities
CS(=O)(=O)c1ccc(-n2nc(C(F)(F)F)nc2-c2cccc(Br)c2)cc1 [Example 29, 5-(3-bromophenyl)-1-(4-methanesulfonylphenyl)-3-trifluoromethyl-1H-[1,2,4]triazole]		16.7	6.23			
CS(=O)(=O)c1ccc(-n2nc(C(F)(F)F)nc2-c2cccc(Cl)c2)cc1 [Example 30, 5-(3-chlorophenyl)-1-(4-methanesulfonylphenyl)-3-trifluoromethyl-1H-[1,2,4]triazole]		18.6	7.32			
CS(=O)(=O)c1ccc(-n2nc(C(F)(F)F)nc2-c2cccc(C(F)(F)F)c2)cc1 [Example 31, 5-(3-trifluoromethylphenyl)-1-(4-methanesulfonylphenyl)-3-trifluoromethyl-1H-[1,2,4]triazole]		16.5	5.66			
COc1ccc(-c2nc(C(F)(F)F)nn2-c2ccc(S(C)(=O)=O)cc2)c(OC)c1 [Example 32, 5-(2,4-dimethoxyphenyl)-1-(4-methanesulfonylphenyl)-3-trifluoromethyl-1H-[1,2,4]triazole]		19.9	12.6			
CS(=O)(=O)c1ccc(-n2nc(C(F)(F)F)nc2/C=C/c2ccccc2)cc1 [Example 33, 5-styryl-1-(4-methanesulfonylphenyl)-3-trifluoromethyl-1H-[1,2,4]triazole]		19.2	19.2			
CC(C)(C)c1ccc(-c2nc(C(F)(F)F)nn2-c2ccc(S(C)(=O)=O)cc2)cc1 [Example 36, 5-(4-t-butylphenyl)-1-(4-methanesulfonylphenyl)-3-trifluoromethyl-1H-[1,2,4]triazole]		21.6	6.23			
CS(=O)(=O)c1ccc(-n2nc(C(F)(F)F)nc2-c2ccc(C#N)cc2)cc1 [Example 37, 5-(4-cyanophenyl)-1-(4-methanesulfonylphenyl)-3-trifluoromethyl-1H-[1,2,4]triazole]		23.7	8.92			
CS(=O)(=O)c1ccc(-n2nc(C(F)(F)F)nc2-c2ccc([N+](=O)[O-])cc2Cl)cc1 [Example 38, 5-(4-nitro-2-chlorophenyl)-1-(4-methanesulfonylphenyl)-3-trifluoromethyl-1H-[1,2,4]triazole]		19.5	5.95			
COc1ccc(-c2nc(C(F)(F)F)nn2-c2ccc(S(C)(=O)=O)cc2)cc1Cl [Example 39, 5-(3-chloro-4-methoxyphenyl)-1-(4-methanesulfonylphenyl)-3-trifluoromethyl-1H-[1,2,4]triazole]		12.5	32.6	the same as or lower	remarkably enhanced	excellent selectivities
CS(=O)(=O)c1ccc(-n2nc(C(F)(F)F)nc2-c2ccc3c(c2)OCO3)cc1 [Example 40, 5-benzo[1,3]dioxol-5-yl-1-(4-methanesulfonylphenyl)-3-trifluoromethyl-1H-[1,2,4]triazole]		18.7	33.7	the same as or lower	remarkably enhanced	excellent selectivities
CS(=O)(=O)c1ccc(-n2nc(C(F)(F)F)nc2-c2ccncc2)cc1 [Example 41, 4-[2-(4-methanesulfonylphenyl)-5-trifluoromethyl-2H-[1,2,4]triazol-3-yl]pyridine]		16.7	8.88			
Cc1ccc(-c2nc(C(F)(F)F)nn2-c2ccc(S(N)(=O)=O)cc2)cc1 [Example 42, 4-(5-p-tolyl-3-trifluoromethyl-[1,2,4]triazol-1-yl)benzenesulfonamide]		38	12.1			
CS(=O)(=O)c1ccc(-n2nc(C(F)(F)F)nc2-c2ccc(Br)cc2)cn1 [Example 47, 2-methanesulfonyl-5-[5-(4-bromophenyl)-3-trifluoromethyl-[1,2,4]triazol-1-yl]pyridine]		21.9	4.26			
COc1ccc(-c2nc(C(F)(F)F)nn2-c2ccc(S(C)(=O)=O)nc2)cc1 [Example 48, 2-methanesulfonyl-5-[5-(4-methoxyphenyl)-3-trifluoromethyl-[1,2,4]triazol-1-yl]pyridine]		28.8	5.63			
CS(=O)(=O)c1ccc(-n2nc(C(F)(F)F)nc2-c2ccc(Br)cc2)nn1 [Example 49, 3-[5-(4-bromophenyl)-3-trifluoromethyl-[1,2,4]triazol-1-yl]-6-methanesulfonyl pyridazine]		14.6	3.21			
COc1ccc(-c2nc(C(F)(F)F)nn2-c2ccc(S(C)(=O)=O)nn2)cc1 [Example 50, 3-[5-(4-methoxyphenyl)-3-trifluoromethyl-[1.2.4]triazol-1-yl]-6-methanesulfonyl pyridazine]		10.6	4.32			
COc1ccc2c(c1)c(CC(=O)O)c(C)n2C(=O)c1ccc(Cl)cc1 [Indomethacine, reference compound]	40.1					
